Results published in ChEMBL document CHEMBL1201862, “PubChem BioAssay data set” (2004).
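In this assay, cells in 96-well plates receive the compound at five concentrations for 48 hours. Endpoints are linearly interpolated between the surrounding concentrations. GI50 marks 50% less growth.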 Activity calls are given as the source filed them. Rule as the data show it: active = GI50 up to about 1.1 µM and inactive = higher.

Legend:
Assay in all cases: DTP human tumour cell line panel, 48 h
NCI-H522 = tested on: NCI-H522
OVCAR-8 = tested on: OVCAR-8
ACHN = tested on: ACHN
M14 = tested on: M14
OVCAR-5 = tested on: OVCAR-5
NCI-H460 = tested on: NCI-H460
SF-268 = tested on: SF-268
MOLT-4 = tested on: MOLT-4
OVCAR-4 = tested on: OVCAR-4
HCC 2998 = tested on: HCC 2998
RPMI-8226 = tested on: RPMI-8226
MCF7 = tested on: MCF7
HCT-15 = tested on: HCT-15
U-251 = tested on: U-251
SK-OV-3 = tested on: SK-OV-3
HOP-62 = tested on: HOP-62
K562 = tested on: K562
LOX IMVI = tested on: LOX IMVI
DU-145 = tested on: DU-145
A498 = tested on: A498

## O=C(O)c1cc2ccccc2c(/N=N/c2ccc(S(=O)(=O)Nc3ncccn3)cc2)c1O
NCI-H522
  GI50: > 100 µM (inactive)
OVCAR-8
  GI50: > 100 µM (inactive)
ACHN
  GI50: > 100 µM (inactive)
M14
  GI50: > 100 µM (inactive)
OVCAR-5
  GI50: > 100 µM (inactive)
NCI-H460
  GI50: > 100 µM (inactive)
SF-268
  GI50: > 100 µM (inactive)
MOLT-4
  GI50: > 100 µM (inactive)
OVCAR-4
  GI50: > 100 µM (inactive)
HCC 2998
  GI50: > 100 µM (inactive)
RPMI-8226
  GI50: > 100 µM (inactive)
MCF7
  GI50: > 100 µM (inactive)
HCT-15
  GI50: > 100 µM
U-251
  GI50: > 100 µM (inactive)
SK-OV-3
  GI50: > 100 µM (inactive)
HOP-62
  GI50: > 100 µM (inactive)
K562
  GI50: > 100 µM (inactive)

## Cc1ccc(/C=N/Nc2ncccn2)s1
NCI-H522
  GI50: > 100 µM (inactive)
OVCAR-8
  GI50: > 100 µM (inactive)
ACHN
  GI50: > 100 µM (inactive)
M14
  GI50: > 100 µM (inactive)
OVCAR-5
  GI50: > 100 µM (inactive)
SF-268
  GI50: > 100 µM (inactive)
OVCAR-4
  GI50: > 100 µM (inactive)
HCC 2998
  GI50: > 100 µM (inactive)
RPMI-8226
  GI50: > 100 µM (inactive)
MCF7
  GI50: > 100 µM (inactive)
HCT-15
  GI50: > 100 µM
LOX IMVI
  GI50: > 100 µM (inactive)
U-251
  GI50: > 100 µM (inactive)
SK-OV-3
  GI50: > 100 µM (inactive)
HOP-62
  GI50: > 100 µM (inactive)
K562
  GI50: > 10 µM (inactive)

## CCOP(C)(=O)C(Nc1ccc(F)cc1)c1ccc(F)cc1 (centres undefined)
NCI-H522
  GI50: > 100 µM (inactive)
OVCAR-8
  GI50: > 100 µM (inactive)
ACHN
  GI50: > 100 µM (inactive)
M14
  GI50: > 100 µM (inactive)
OVCAR-5
  GI50: > 100 µM (inactive)
NCI-H460
  GI50: > 100 µM (inactive)
DU-145
  GI50: > 100 µM (inactive)
SF-268
  GI50: > 100 µM (inactive)
MOLT-4
  GI50: > 100 µM (inactive)
OVCAR-4
  GI50: > 100 µM (inactive)
HCC 2998
  GI50: > 100 µM (inactive)
RPMI-8226
  GI50: > 100 µM (inactive)
HCT-15
  GI50: > 100 µM
LOX IMVI
  GI50: > 100 µM (inactive)
U-251
  GI50: > 100 µM (inactive)
SK-OV-3
  GI50: > 100 µM (inactive)
A498
  GI50: > 100 µM (inactive)
HOP-62
  GI50: > 100 µM (inactive)
K562
  GI50: > 100 µM (inactive)

## CN1CCN(C(=S)N(C(=O)c2ccco2)C2CCCCC2)CC1
NCI-H522
  GI50: > 100 µM (inactive)
OVCAR-8
  GI50: > 100 µM (inactive)
ACHN
  GI50: > 100 µM (inactive)
M14
  GI50: > 100 µM (inactive)
OVCAR-5
  GI50: > 100 µM (inactive)
NCI-H460
  GI50: > 100 µM (inactive)
DU-145
  GI50: > 100 µM (inactive)
SF-268
  GI50: > 100 µM (inactive)
MOLT-4
  GI50: > 10 µM (inactive)
OVCAR-4
  GI50: > 100 µM (inactive)
HCC 2998
  GI50: > 100 µM (inactive)
RPMI-8226
  GI50: > 100 µM (inactive)
MCF7
  GI50: > 100 µM (inactive)
HCT-15
  GI50: > 100 µM
LOX IMVI
  GI50: > 100 µM (inactive)
U-251
  GI50: > 100 µM (inactive)
K562
  GI50: > 100 µM (inactive)

## CCOC(=O)C1CCCc2sc(N)c(C#N)c21 (centres undefined)
OVCAR-8
  GI50: > 100 µM (inactive)
ACHN
  GI50: > 100 µM (inactive)
M14
  GI50: > 100 µM (inactive)
OVCAR-5
  GI50: > 100 µM (inactive)
NCI-H460
  GI50: > 100 µM (inactive)
MOLT-4
  GI50: > 100 µM (inactive)
HCC 2998
  GI50: > 100 µM (inactive)
RPMI-8226
  GI50: > 100 µM (inactive)
MCF7
  GI50: > 100 µM (inactive)
HCT-15
  GI50: > 100 µM
U-251
  GI50: > 100 µM (inactive)
A498
  GI50: > 100 µM (inactive)
HOP-62
  GI50: > 100 µM (inactive)
K562
  GI50: > 100 µM (inactive)

## c1ccc2cc3c(cc2c1)nc1ccccn13
OVCAR-8
  GI50: > 100 µM (inactive)
ACHN
  GI50: > 100 µM (inactive)
M14
  GI50: > 100 µM (inactive)
OVCAR-5
  GI50: > 100 µM (inactive)
DU-145
  GI50: > 100 µM (inactive)
SF-268
  GI50: > 100 µM (inactive)
MOLT-4
  GI50: > 100 µM (inactive)
HCC 2998
  GI50: > 100 µM (inactive)
RPMI-8226
  GI50: > 100 µM (inactive)
MCF7
  GI50: 28.2 µM (inactive)
HCT-15
  GI50: > 100 µM
U-251
  GI50: > 100 µM (inactive)
SK-OV-3
  GI50: 77.3 µM (inactive)
HOP-62
  GI50: > 100 µM (inactive)
K562
  GI50: > 100 µM (inactive)

## O=C(CC(C(=O)c1ccsc1)c1cccs1)c1cccs1 (centres undefined)
NCI-H522
  GI50: 33.4 µM (inactive)
OVCAR-8
  GI50: 83.8 µM (inactive)
ACHN
  GI50: 99.1 µM (inactive)
M14
  GI50: 59.3 µM (inactive)
OVCAR-5
  GI50: > 100 µM (inactive)
NCI-H460
  GI50: 49 µM (inactive)
SF-268
  GI50: > 100 µM (inactive)
MOLT-4
  GI50: 33 µM (inactive)
OVCAR-4
  GI50: 48.6 µM (inactive)
HCC 2998
  GI50: > 100 µM (inactive)
RPMI-8226
  GI50: 33.1 µM (inactive)
HCT-15
  GI50: 65.5 µM
LOX IMVI
  GI50: 68.2 µM (inactive)
U-251
  GI50: > 100 µM (inactive)
SK-OV-3
  GI50: > 100 µM (inactive)
A498
  GI50: 66.4 µM (inactive)
HOP-62
  GI50: > 100 µM (inactive)
K562
  GI50: 73.5 µM (inactive)

## CCOC(=O)C1C=C2O[C@@H]3OC4(CCCCC4)O[C@@H]3C2C2C(=O)CCC(=O)[C@@]12C(=O)OC (some centres undefined)
NCI-H522
  GI50: > 100 µM (inactive)
OVCAR-8
  GI50: > 100 µM (inactive)
ACHN
  GI50: > 100 µM (inactive)
M14
  GI50: > 100 µM (inactive)
OVCAR-5
  GI50: > 100 µM (inactive)
NCI-H460
  GI50: > 100 µM (inactive)
SF-268
  GI50: > 100 µM (inactive)
MOLT-4
  GI50: > 100 µM (inactive)
OVCAR-4
  GI50: > 100 µM (inactive)
HCC 2998
  GI50: > 100 µM (inactive)
RPMI-8226
  GI50: > 100 µM (inactive)
HCT-15
  GI50: > 100 µM
LOX IMVI
  GI50: > 100 µM (inactive)
U-251
  GI50: > 100 µM (inactive)
SK-OV-3
  GI50: > 100 µM (inactive)
A498
  GI50: > 100 µM (inactive)
HOP-62
  GI50: > 100 µM (inactive)
K562
  GI50: > 100 µM (inactive)
